Experimental data reported in patent US4530836A, “Peptide” (Amano Pharmaceutical Co., Ltd., priority 1983, dated 1985).
Where two headings read alike, the source gives them in different places. Starred links: 1 amine or outer side, 2 acyl side, 3 side chain; linkers in the order of their positions; H or OH if unused. Non-standard residues stand in square brackets, D forms with d. Residues, ends and D or L forms follow the SMILES beside them. sY = N[C@@H](Cc1ccc(OS(=O)(=O)O)cc1)C(=O)O; Glutaryl = O=C(CCCC(=O)[*:2])[*:1]; pGlu = O=C1CC[C@@H](C(=O)O)N1; Suc = O=C(CCC(=O)[*:2])[*:1]

Legend:
gallbladder = type: in vivo, guinea pig; conditions: for Gallbladder contracting activity (in words): compared with CCK-8
Procedure: This test was in accordance with the method of G. Bertaccini et al. [Br. J. Pharmacol., 34, 291-310 (1968)].
Male Hartley guinea pigs (weighing 400-600 g) was anesthetized with urethane and fixed at the supine position. After laparotomy, the top of the gallbladder was clamped with a Serre-fine which was connected to a FD pickup (model: SB-IT, NIHON KOHDEN KOGYO Co., Ltd.), and the contraction was recorded on a recorder (model: PJB-3012, made by the above company) through a preamplifier (model: RUP-25, made by the above company). A standard solution and the invented peptide solutions were injected into the jugular vein, and the relative potency was determined from the peak height of the gallbladder contraction.

[1] = test system: pancreatic external secretion; assay: Acceleration of pancreatic external secretion (method of Dockray), i.v. in rats, compared with CCK-8; type: in vivo, rat; conditions: male Wistar rats, 30 minutes after administration
Procedure: This test was conducted in accordance with the method of Dockray [J. Physiol., 225, 679-692 (1972)]. Male Wistar rats (weighing about 280 g) were deprived for 24 hours and under anesthesia the gastric pylorus and the duodenal side end of the common hepatic duct were ligated. A canula for collection of pancreatic juice was inserted into the duct in the retrograde fashion. The bile was led into the duodenum. Varying concentrations of the control solution (CCK-8 solution) and solutions of the invented peptides in a volume of 50 μl were administered intravenously every one hour, thus determining the increment in the secretion rate of the pancreatic juice and protein during 30 minutes after administration, wherein the amount of the whole protein secreted was determined from the ultraviolet absorbance at 280 nm of the pancreatic juice secreted.

gastric acid secretion = assay: Gastric acid secretion accelerating activity in Shay rats; type: in vivo, rat; conditions: pylorus-ligated male Wistar rats, i.v., gastric juice 2 hours after administration; tetragastrin = 1.0
Procedure: This test was conducted with Shay rats [H, Shay et al., Gastroenterology, 5, 43 (1945)] prepared. Employing male Wistar rats (weighing 270-310 g) deprived for 24 hours, the gastric pylorus was ligated under ether-anesthesia. Immediately thereafter, the invented peptides and tetragastrin as a control were administered intravenously. Gastric juice was withdrawn 2 hours after administration, and its amount and the total amount of acid secreted were measured to determine the relative potency based on tetragastrin.

[2] = test system: pancreatic external secretion; assay: Pancreatic external secretion accelerating activity (protein secretion), compared with tetragastrin; type: in vivo, rat; conditions: rats, i.v., increment in protein secretion rate during 30 minutes (UV 280 nm); tetragastrin = 1.0
Procedure: This test was conducted in accordance with the method of Dockray [J. Physiol., 225, 679-692 (1972)]. Male Wistar rats (weighing about 280 g) were deprived for 24 hours and under anesthesia the gastric pylorus and the duodenal side end of the common hepatic duct were ligated. A canula for collection of pancreatic juice was inserted into the duct in the retrograde fashion. The bile was led into the duodenum. […] The test was conducted in the same manner as stated already. The increment in the secretion rate of the protein in the pancreatic during 30 minutes after administration of the test solution was determined from the ultraviolet absorbance at 280 nm of the pancreatic juice. The found values were compared with that of tetragastrin.

[3] = male Hartley guinea pigs, injection into jugular vein, from peak height of gallbladder contraction, CCK-8 = 100

Row | Molecule | Gallbladder contracting activity, relative potency (gallbladder; guinea pig, in vivo) | Gallbladder contracting activity (in words) (gallbladder; guinea pig) | Increased amount of the pancreatic juice secreted (in words) [1] | Gastric acid secretion accelerating activity, relative potency (gastric acid secretion) | Pancreatic external secretion accelerating activity, relative potency [2] | Gallbladder contracting activity, relative potency (gallbladder; [3])
1 | CSCC[C@H](NC(=O)[C@H](Cc1ccc(OS(=O)(=O)O)cc1)NC(=O)[C@@H](N)CC(=O)O)C(=O)NCC(=O)N[C@@H](Cc1c[nH]c2ccccc12)C(=O)N[C@@H](CCSC)C(=O)N[C@@H](CC(=O)O)C(=O)N[C@@H](Cc1ccccc1)C(N)=O [CCK-8, Asp-Tyr(SO3 H)-Met-Gly-Trp-Met-Asp-Phe-NH2, reference compound] | 100 |  |  |  |  | 
2 | CSCC[C@H](NC(=O)[C@H](Cc1c[nH]c2ccccc12)NC(=O)CNC(=O)[C@H](CCSC)NC(=O)[C@H](Cc1ccc(OS(=O)(=O)O)cc1)NC(=O)CCC(=O)O)C(N)=O [Compound I, Suc-Tyr(SO3 H)-Met-Gly-Trp-Met-NH2] (Suc-[sY]MGWM-NH2) | 0 | no activity | no active effect |  |  | 
3 | CSCC[C@H](NC(=O)[C@H](Cc1ccc(OS(=O)(=O)O)cc1)NC(=O)CCC(=O)O)C(=O)NCC(=O)N[C@@H](Cc1c[nH]c2ccccc12)C(=O)N[C@@H](CCSC)C(=O)N[C@@H](CC(=O)O)C(N)=O [Compound II, Suc-Tyr(SO3 H)-Met-Gly-Trp-Met-Asp-NH2] (Suc-[sY]MGWMD-NH2) | 0 | no activity | no active effect |  |  | 
4 | CSCC[C@H](NC(=O)[C@H](Cc1c[nH]c2ccccc12)NC(=O)[C@@H](Cc1c[nH]c2ccccc12)NC(=O)[C@H](CCSC)NC(=O)[C@H](Cc1ccc(OS(=O)(=O)O)cc1)NC(=O)CCC(=O)O)C(=O)N[C@@H](CC(=O)O)C(=O)N[C@@H](Cc1ccccc1)C(N)=O [Compound IV, Suc-Tyr(SO3 H)-Met-D-Trp-Trp-Met-Asp-Phe-NH2] (Suc-[sY]M[dW]WMDF-NH2) | 5.0 | mild | comparable to that of CCK-8 |  |  | 
5 | CSCC[C@H](NC(=O)[C@H](Cc1ccc(OS(=O)(=O)O)cc1)NC(=O)[C@H](CC(=O)O)NC(=O)CCN)C(=O)NCC(=O)N[C@@H](Cc1c[nH]c2ccccc12)C(=O)N[C@@H](CCSC)C(=O)N[C@@H](CC(=O)O)C(=O)N[C@@H](Cc1ccccc1)C(N)=O [Compound IX, β-Ala-Asp-Tyr(SO3 H)-Met-Gly-Trp-Met-Asp-Phe-NH2] | 113 | comparable activities with CCK-8 | about half of that of CCK-8 |  |  | 
6 | CSCC[C@H](NC(=O)[C@H](Cc1c[nH]c2ccccc12)NC(=O)[C@@H](Cc1c[nH]c2ccccc12)NC(=O)[C@H](CCSC)NC(=O)[C@H](Cc1ccc(OS(=O)(=O)O)cc1)NC(=O)CCCC(=O)O)C(=O)N[C@@H](CC(=O)O)C(=O)N[C@@H](Cc1ccccc1)C(N)=O [Compound V, Glt-Tyr(SO3 H)-Met-D-Trp-Trp-Met-Asp-Phe-NH2] (Glutaryl-[sY]M[dW]WMDF-NH2) | < 1.0 | little activity | comparable to that of CCK-8 |  |  | 
7 | CSCC[C@H](NC(=O)[C@H](Cc1ccc(OS(=O)(=O)O)cc1)NC(=O)[C@H](CC(=O)O)NC(=O)CN)C(=O)NCC(=O)N[C@@H](Cc1c[nH]c2ccccc12)C(=O)N[C@@H](CCSC)C(=O)N[C@@H](CC(=O)O)C(=O)N[C@@H](Cc1ccccc1)C(N)=O [Compound VIII, Gly-Asp-Tyr(SO3 H)-Met-Gly-Trp-Met-Asp-Phe-NH2] | 97 | comparable activities with CCK-8 | comparable to that of CCK-8 |  |  | 
8 | CSCC[C@H](NC(=O)[C@H](Cc1c[nH]c2ccccc12)NC(=O)CNC(=O)[C@H](Cc1ccc(OS(=O)(=O)O)cc1)NC(=O)[C@H](C)NC(=O)CCCC(=O)O)C(=O)N[C@@H](CC(=O)O)C(=O)N[C@@H](Cc1ccccc1)C(N)=O [Compound X, Glt-Ala-Tyr(SO3 H)-Gly-Trp-Met-Asp-Phe-NH2] (Glutaryl-A[sY]GWMDF-NH2) |  |  |  | 6.1 | 258.8 | 
9 | CSCC[C@H](NC(=O)[C@H](Cc1c[nH]c2ccccc12)NC(=O)CNC(=O)[C@H](Cc1ccc(OS(=O)(=O)O)cc1)NC(=O)[C@H](C)NC(=O)[C@@H]1CCC(=O)N1)C(=O)N[C@@H](CC(=O)O)C(=O)N[C@@H](Cc1ccccc1)C(N)=O [Compound XI, pGlu-Ala-Tyr(SO3 H)-Gly-Trp-Met-Asp-Phe-NH2] ([pGlu]A[sY]GWMDF-NH2) |  |  |  | 2.0 | 50.0 | 
10 | CSCC[C@H](NC(=O)[C@@H](N)Cc1c[nH]c2ccccc12)C(=O)N[C@@H](CC(=O)O)C(=O)N[C@@H](Cc1ccccc1)C(N)=O [Tetragastrin, reference compound] |  |  |  | 1.0 | 1.0 | 
11 | Suc-Phe(NHSO3 H)-Met-Gly-Trp-Met-Asp-Phe-NH2 [Compound VII] |  | little activity | no active effect |  |  | < 1.0
12 | Suc-Tyr(SO3 H)-Met-D-Ala-Trp-Met-Asp-Phe-NH2 [Compound III] |  | mild |  |  |  | 8.7
